We go through five compounds from ChEMBL document CHEMBL5725308, “Inhibitors of the fibroblast growth factor receptor” (2017).

The test deals with Fibroblast growth factor receptor 4 (Homo sapiens, UniProt P22455). Description: The reaction was stopped by the addition of 70 ul of Stop buffer (100 mM HEPES pH 7.5, 0.015% Brij 35, 35 mM EDTA and 0.2% of Coating Reagent 3 (Caliper Lifesciences)). The plate was then read on a Caliper LabChip EZ Reader II (protocol settings: −1.9 psi, upstream voltage −700, downstream Voltage -3000, post sample sip 35S). The test is classed as biochemical.
Fibroblast growth factor receptor 4, sequence (P22455 whole entry): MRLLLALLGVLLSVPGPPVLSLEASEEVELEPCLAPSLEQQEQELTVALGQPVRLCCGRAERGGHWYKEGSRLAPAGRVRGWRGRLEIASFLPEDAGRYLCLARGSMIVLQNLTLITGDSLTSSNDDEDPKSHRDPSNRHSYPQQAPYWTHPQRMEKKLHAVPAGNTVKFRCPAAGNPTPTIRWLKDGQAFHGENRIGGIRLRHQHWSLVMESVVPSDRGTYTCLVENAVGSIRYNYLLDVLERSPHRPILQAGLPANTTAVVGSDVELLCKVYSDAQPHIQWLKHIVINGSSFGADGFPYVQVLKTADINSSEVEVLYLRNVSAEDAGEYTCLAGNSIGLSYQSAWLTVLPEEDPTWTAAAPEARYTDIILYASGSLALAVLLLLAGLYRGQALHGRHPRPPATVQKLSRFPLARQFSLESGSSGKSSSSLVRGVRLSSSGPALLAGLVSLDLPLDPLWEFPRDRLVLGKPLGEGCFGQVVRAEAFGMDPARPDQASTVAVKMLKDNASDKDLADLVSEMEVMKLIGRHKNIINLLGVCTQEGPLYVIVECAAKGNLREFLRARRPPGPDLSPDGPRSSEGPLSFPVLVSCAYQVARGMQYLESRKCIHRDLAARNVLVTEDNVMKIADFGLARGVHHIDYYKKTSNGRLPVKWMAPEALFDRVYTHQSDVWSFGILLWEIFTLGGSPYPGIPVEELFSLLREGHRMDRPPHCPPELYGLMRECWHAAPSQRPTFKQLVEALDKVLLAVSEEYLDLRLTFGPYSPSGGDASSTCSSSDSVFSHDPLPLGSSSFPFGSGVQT

As to `C=CC(=O)Nc1cccc(-c2cc3c(cn2)cc(-c2c(Cl)c(OC)cc(OC)c2Cl)c(=O)n3C2CCCC2)c1`, the IC50 was < 10 nM. For `C=CC(=O)N1CCc2ccc(-c3ncc4cc(-c5c(Cl)c(OC)cc(OC)c5Cl)c(=O)n(CC)c4n3)cc21`, the IC50 was < 10 nM. As for `C=CC(=O)Nc1ccccc1-c1ncc2cc(-c3c(Cl)c(OC)cc(OC)c3Cl)cc(OC)c2n1`, the figure is > 1000 nM. `C=CC(=O)Nc1ccccc1-c1cc2c(cn1)cc(-c1c(Cl)c(OC)cc(OC)c1Cl)c(=O)n2C1CCCC1`: the half-inhibitory concentration (IC50) is < 10 nM. On to `C=CC(=O)N1CC(C)(C)Oc2ccc(-c3cc4c(cn3)cc(-c3c(Cl)c(OC)cc(OC)c3Cl)c(=O)n4CC)cc21`, for which the IC50 is < 10 nM.
